Here are results for 3 compounds from ChEMBL document CHEMBL1201862, “PubChem BioAssay data set” (2004).

Assay [1] concerns BJ. The assay can be described thus: BJ-TERT fibroblast viability loss – cell-based, RAS-independent, luminescence, dose response (AID 1933). The format is functional. The following applies: Homo sapiens.
For assay [2], the system named is BJ. In words: BJ-TERT-LT-ST fibroblast viability loss – cell-based, RAS-independent, luminescence, dose response (AID 1935).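 Further: BJ fibroblasts immortalized with TERT plus LT and ST oncogenes.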 It counts as functional. The following applies: Homo sapiens.
Assay [3] in a line: DRD fibroblast viability loss – cell-based, non-viral oncogenic, luminescence, dose response (AID 1934). As to conditions: Homo sapiens. It counts as functional.
The nature of assay [4]: protection from phage-mediated lysis, alamar blue read-out – E. coli UTI89, K1F phage, bacterial capsule biogenesis inhibitors (AID 488966). It counts as functional.
Assay [5] is described as follows: toxicity toward cultured mammalian cells – cell-based, plate reader, cherry-pick samples, cytotoxicity control, dose response (AID 504397). The format is functional.
Assay [6] relates to HEK293. In words: membrane integrity loss in HEK cells – cell-based, fluorescence, cytotoxicity control for IDE activator project, dose response (AID 588440).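 Further: cytotoxicity by LDH release measuring loss of membrane integrity.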 The format is functional. As to conditions: Homo sapiens.
Assay [7] deals with HEK293. In words: optical interference in Abeta FP readout, dose response, artefact control for IDE activator project, biochemical, fluorescence polarization (AID 588442). It counts as functional, cell-based. As to conditions: Homo sapiens.
In assay [8] the target is Small ubiquitin-related modifier 1 (Homo sapiens, UniProt P63165). The assay can be described thus: SUMO1 protein interaction blockers, potency – biochemical, fluorescence polarization, uHTS hits, dose response (AID 624382). As to conditions: read-out: IC50_Mean. It counts as functional.
Small ubiquitin-related modifier 1, sequence (P63165 whole entry): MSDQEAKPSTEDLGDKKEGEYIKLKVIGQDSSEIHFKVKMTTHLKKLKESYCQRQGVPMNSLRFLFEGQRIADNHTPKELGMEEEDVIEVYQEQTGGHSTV
In assay [9] the target is T1, Rac GTPase-activating protein 1 (Homo sapiens, UniProt Q9H0H5).
T1 sequence (Q9H0H5 whole entry): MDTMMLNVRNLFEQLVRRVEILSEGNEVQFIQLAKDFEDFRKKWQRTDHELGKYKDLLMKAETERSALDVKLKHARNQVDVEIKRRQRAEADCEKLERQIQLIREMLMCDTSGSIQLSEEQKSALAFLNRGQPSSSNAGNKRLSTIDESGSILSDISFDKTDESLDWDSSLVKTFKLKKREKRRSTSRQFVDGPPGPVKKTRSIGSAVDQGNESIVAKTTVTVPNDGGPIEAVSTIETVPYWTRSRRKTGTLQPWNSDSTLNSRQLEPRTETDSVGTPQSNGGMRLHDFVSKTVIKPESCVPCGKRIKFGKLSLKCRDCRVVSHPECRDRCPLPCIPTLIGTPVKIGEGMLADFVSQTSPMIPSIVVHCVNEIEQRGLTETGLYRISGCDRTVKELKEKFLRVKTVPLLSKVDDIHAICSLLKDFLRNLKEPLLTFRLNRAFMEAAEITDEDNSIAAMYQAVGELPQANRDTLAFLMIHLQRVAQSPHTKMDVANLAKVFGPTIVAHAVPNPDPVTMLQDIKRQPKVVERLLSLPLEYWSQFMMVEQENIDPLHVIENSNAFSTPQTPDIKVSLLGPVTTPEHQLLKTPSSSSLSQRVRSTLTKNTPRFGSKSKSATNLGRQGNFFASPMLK
The assay can be described thus: blockers of MgcRacGAP-driven Rac1 GTP hydrolysis – biochemical, ADP Hunter fluorescence, primary and confirmatory, confirmation (AID 624330). It counts as functional.

A short description of assay [10]: reduced cellular PGC1a acetyl-lysine signal – cell-based, cherry-picked samples, dose response (AID 720514).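 Further: potency may reflect raised or lowered acetylation signal.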 It counts as functional.
Assay [11] has as its target Death-associated protein kinase 3 (Homo sapiens, UniProt O43293). The format is functional.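 Further: measured as one member of a kinome-wide profiling panel.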
For another assay, the target named is Aurora kinase A (Homo sapiens, UniProt O14965). It counts as functional.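 Further: value from the Navigating the Kinome kinase panel profiling, panel entry STK6.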
Aurora kinase A, sequence (O14965 whole entry, the tested form may be a part): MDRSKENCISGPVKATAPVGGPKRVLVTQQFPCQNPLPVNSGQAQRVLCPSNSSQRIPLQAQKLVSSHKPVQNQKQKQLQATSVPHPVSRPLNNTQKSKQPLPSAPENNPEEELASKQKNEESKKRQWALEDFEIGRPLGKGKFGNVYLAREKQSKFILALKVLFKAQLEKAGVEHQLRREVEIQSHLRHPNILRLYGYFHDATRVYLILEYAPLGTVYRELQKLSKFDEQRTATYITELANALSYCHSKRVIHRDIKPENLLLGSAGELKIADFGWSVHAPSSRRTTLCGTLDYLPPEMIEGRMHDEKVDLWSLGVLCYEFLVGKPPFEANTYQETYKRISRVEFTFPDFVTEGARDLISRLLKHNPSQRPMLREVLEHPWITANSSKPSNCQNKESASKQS
For the next assay, the target named is LIM domain kinase 1 (Homo sapiens, UniProt P53667). The assay can be described thus: Navigating the Kinome. Panel member name: LIMK1. It counts as functional.
Assay [12] addresses Non-receptor tyrosine-protein kinase TYK2 (Homo sapiens, UniProt P29597). It counts as functional.
For assay [13], the target named is Proto-oncogene tyrosine-protein kinase Src (Homo sapiens, UniProt P12931). The format is functional.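 Further: SRC entry within a kinome-wide kinase profiling panel.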
Proto-oncogene tyrosine-protein kinase Src, sequence (P12931 2-536 limits assumed): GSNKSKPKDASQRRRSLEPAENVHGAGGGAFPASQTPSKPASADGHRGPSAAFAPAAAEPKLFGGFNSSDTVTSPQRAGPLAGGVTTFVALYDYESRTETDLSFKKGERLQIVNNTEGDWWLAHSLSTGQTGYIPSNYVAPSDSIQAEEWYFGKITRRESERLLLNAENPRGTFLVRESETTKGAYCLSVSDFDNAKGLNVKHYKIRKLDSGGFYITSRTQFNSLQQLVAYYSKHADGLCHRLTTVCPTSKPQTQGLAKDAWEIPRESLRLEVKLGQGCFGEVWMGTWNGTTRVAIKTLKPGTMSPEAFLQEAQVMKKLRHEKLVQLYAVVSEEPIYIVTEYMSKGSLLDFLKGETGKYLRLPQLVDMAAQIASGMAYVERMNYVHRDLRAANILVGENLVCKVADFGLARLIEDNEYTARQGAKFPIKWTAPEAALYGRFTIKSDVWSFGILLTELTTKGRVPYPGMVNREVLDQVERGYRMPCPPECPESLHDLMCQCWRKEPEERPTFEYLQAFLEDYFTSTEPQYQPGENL
The target in assay [14] is MAP kinase-activated protein kinase 3 (Homo sapiens, UniProt Q16644). It counts as functional.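 Further: value comes from a kinome-wide profiling panel in which MAPKAPK3 is one of the panel members.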
Assay [15] concerns the target Vascular endothelial growth factor receptor 2 (Homo sapiens, UniProt P35968). It counts as functional.
The next assay concerns the target Ephrin type-A receptor 2 (Homo sapiens, UniProt P29317). The format is functional.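 Further: EPHA2 tested as one member of a kinome-wide kinase panel.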
For assay [16], the target named is RAC-alpha serine/threonine-protein kinase (Homo sapiens, UniProt P31749). The format is functional.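 Further: AKT1 affinity measured as one member of a kinome-wide kinase profiling panel.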
RAC-alpha serine/threonine-protein kinase, sequence (P31749 whole entry): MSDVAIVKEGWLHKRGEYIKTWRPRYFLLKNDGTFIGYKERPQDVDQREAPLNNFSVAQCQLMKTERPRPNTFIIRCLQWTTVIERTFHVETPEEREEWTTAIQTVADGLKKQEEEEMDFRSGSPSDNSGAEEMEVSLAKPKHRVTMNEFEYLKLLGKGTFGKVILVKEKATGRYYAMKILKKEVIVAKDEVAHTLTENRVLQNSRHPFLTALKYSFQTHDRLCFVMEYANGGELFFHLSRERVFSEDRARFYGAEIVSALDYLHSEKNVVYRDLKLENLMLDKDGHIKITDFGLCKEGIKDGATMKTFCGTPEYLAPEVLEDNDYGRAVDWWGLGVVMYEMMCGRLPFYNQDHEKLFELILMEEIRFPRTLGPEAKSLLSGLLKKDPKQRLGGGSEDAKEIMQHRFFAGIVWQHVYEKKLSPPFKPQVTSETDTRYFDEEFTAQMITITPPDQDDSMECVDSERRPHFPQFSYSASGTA
Assay [17] deals with Vascular endothelial growth factor receptor 3 (Homo sapiens, UniProt P35916). It counts as functional.
In assay [18] the target is Cyclin-dependent kinase 1 (Homo sapiens, UniProt P06493). It counts as functional.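 Further: Kinome-wide panel profiling, with the target listed as panel member CDC2.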
Assay [19] concerns the target 3-phosphoinositide-dependent protein kinase 1 (Homo sapiens, UniProt O15530). The format is functional.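 Further: value comes from the Navigating the Kinome panel, PDPK1 member.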
Assay [20] has as its target Serine/threonine-protein kinase PLK1 (Homo sapiens, UniProt P53350). The format is functional.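 Further: PLK1 measured as one member of a kinome-wide profiling panel.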
In assay [21] the target is Glycogen synthase kinase-3 beta (Homo sapiens, UniProt P49841). The format is functional.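 Further: value comes from a broad kinome profiling panel, with GSK3B as the panel member.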
Assay [22] concerns the target BDNF/NT-3 growth factors receptor (Homo sapiens, UniProt Q16620). It counts as functional.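 Further: NTRK2 measured as one member of a broad kinome-wide kinase profiling panel.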
The target of assay [23] is cAMP-dependent protein kinase catalytic subunit alpha (Homo sapiens, UniProt P17612). It counts as functional.
For assay [24], the target named is Serine/threonine-protein kinase MRCK alpha (Homo sapiens, UniProt Q5VT25). The format is functional.
Assay [25] concerns the target Dual specificity tyrosine-phosphorylation-regulated kinase 1A (Homo sapiens, UniProt Q13627). It counts as functional.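 Further: measured against DYRK1A as one member of a broad kinome profiling panel.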
For assay [26], the target named is Inhibitor of nuclear factor kappa-B kinase subunit beta (Homo sapiens, UniProt O14920). The format is functional.
Inhibitor of nuclear factor kappa-B kinase subunit beta, sequence (O14920 whole entry): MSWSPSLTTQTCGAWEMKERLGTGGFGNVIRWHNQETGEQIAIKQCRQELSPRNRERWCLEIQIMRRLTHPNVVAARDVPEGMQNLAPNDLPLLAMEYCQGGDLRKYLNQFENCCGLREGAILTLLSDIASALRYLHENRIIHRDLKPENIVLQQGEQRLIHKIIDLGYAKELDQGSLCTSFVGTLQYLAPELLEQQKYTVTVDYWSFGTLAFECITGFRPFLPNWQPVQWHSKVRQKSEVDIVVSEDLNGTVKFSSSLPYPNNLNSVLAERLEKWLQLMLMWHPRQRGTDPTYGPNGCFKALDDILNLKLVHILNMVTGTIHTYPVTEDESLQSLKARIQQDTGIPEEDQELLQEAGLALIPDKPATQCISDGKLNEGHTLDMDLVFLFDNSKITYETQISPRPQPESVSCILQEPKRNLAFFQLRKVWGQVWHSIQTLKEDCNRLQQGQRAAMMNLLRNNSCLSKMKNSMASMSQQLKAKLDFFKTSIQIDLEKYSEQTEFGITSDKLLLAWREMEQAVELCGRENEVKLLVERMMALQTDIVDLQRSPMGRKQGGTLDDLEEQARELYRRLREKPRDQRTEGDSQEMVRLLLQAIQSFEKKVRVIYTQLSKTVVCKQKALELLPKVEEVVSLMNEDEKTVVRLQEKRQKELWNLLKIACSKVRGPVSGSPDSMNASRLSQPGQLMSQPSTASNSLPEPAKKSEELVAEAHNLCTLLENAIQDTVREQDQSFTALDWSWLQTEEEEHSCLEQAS
Assay [27] concerns the target T2, Sentrin-specific protease 8 (Homo sapiens, UniProt Q96LD8).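 Further: luminescence read-out of SENP8 inhibition, dose-response confirmation following an ultra-high-throughput screen.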
T2 sequence (Q96LD8 whole entry): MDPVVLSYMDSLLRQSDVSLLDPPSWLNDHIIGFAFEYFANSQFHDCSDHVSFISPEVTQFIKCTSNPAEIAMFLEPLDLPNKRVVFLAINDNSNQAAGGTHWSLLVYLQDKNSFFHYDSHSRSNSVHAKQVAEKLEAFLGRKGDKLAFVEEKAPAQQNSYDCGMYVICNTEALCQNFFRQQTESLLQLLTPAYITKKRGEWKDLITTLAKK
It counts as functional.

The source made the active and inactive calls. Some results are limits rather than exact numbers.

Non-receptor tyrosine-protein kinase TYK2, sequence (P29597 whole entry): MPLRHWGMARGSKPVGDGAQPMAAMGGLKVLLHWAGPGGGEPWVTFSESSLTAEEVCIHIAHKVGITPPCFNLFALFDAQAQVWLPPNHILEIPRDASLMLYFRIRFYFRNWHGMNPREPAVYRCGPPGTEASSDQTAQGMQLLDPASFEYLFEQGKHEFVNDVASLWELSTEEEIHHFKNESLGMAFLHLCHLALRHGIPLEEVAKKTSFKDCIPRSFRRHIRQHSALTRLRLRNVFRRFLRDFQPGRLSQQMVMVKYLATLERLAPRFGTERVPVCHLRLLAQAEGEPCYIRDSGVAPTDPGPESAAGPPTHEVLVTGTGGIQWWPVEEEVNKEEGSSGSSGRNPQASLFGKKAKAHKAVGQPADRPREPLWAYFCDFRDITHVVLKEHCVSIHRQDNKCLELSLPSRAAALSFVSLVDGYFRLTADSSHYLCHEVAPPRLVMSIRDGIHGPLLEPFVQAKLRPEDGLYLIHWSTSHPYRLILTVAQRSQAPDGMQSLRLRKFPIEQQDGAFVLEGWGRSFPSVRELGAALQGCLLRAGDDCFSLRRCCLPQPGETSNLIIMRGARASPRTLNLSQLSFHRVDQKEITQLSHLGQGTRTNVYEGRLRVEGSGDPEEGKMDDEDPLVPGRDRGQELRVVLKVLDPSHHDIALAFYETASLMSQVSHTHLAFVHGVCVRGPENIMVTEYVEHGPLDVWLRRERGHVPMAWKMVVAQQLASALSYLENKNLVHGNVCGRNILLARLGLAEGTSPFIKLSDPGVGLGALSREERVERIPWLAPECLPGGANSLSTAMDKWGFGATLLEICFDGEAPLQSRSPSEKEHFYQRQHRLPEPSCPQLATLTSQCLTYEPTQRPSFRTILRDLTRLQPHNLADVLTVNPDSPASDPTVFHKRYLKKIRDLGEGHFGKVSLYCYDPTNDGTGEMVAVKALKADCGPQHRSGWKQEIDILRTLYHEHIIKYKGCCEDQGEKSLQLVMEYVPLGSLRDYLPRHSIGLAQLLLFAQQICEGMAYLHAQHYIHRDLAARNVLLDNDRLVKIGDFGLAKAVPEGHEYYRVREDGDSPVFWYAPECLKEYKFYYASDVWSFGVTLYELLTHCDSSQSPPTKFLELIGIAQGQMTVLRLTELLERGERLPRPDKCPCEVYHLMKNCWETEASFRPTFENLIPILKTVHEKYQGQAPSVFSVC
BDNF/NT-3 growth factors receptor, sequence (Q16620 whole entry): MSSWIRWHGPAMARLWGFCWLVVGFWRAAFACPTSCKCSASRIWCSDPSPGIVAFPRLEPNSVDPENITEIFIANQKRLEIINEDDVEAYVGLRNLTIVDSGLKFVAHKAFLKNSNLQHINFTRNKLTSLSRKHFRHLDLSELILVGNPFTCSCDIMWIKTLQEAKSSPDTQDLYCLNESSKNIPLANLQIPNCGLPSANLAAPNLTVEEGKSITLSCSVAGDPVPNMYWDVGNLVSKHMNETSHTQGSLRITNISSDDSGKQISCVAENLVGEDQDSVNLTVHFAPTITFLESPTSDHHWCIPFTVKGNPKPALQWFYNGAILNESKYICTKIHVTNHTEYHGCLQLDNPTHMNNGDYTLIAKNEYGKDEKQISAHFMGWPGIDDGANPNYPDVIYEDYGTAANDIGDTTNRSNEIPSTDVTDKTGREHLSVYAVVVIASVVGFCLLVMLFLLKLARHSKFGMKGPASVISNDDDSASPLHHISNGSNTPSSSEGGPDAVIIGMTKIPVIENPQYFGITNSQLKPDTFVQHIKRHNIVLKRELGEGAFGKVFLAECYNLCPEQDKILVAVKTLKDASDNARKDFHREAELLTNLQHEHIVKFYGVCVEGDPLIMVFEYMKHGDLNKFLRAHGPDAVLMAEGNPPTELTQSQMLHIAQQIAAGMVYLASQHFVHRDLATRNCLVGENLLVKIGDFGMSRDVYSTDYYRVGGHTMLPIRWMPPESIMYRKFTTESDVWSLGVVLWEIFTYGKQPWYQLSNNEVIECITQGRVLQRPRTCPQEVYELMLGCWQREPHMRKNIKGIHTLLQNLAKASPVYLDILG
3-phosphoinositide-dependent protein kinase 1, sequence (O15530 whole entry): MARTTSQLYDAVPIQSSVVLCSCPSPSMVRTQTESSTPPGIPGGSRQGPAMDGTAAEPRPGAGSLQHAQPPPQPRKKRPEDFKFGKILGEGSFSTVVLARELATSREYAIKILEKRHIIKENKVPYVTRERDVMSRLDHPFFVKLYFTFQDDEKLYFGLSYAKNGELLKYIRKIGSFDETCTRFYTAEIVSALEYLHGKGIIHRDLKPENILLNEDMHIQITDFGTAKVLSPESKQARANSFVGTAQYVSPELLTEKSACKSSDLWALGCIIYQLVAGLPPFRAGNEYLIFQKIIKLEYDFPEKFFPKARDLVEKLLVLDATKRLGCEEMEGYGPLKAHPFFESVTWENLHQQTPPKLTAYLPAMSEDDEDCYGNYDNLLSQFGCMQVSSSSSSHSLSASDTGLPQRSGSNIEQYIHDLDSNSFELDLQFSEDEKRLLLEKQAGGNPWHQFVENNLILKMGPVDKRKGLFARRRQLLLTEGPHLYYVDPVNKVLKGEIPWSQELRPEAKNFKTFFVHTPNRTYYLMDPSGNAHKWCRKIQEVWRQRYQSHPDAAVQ

Regarding `Cc1cc(N)c2cc(NC(=O)/C=C/c3ccccc3Cl)ccc2n1`, the EC50 in the assay on BJ [1] was 2.62 µM (inconclusive); in the assay with BJ [2], 2.79 µM (inconclusive); in assay [3], 2.88 µM (active); in the assay with HEK293 [7], > 54.7 µM (inactive). The IC50 in assay [4] was > 75 µM (active); in the assay with HEK293 [6], 2.63 µM (active); in assay [8] it was > 66.6 µM (inactive); in assay [9] it was 23.7 µM (active). Further, the results for the AC50 in assay [5] and in assay [10] were 4.26 µM (active) and 1.97 µM (active), respectively.
Consider `CC(=NNC(=N)N)c1cc(NC(=O)NCCCCCCNC(=O)Nc2cc(C(C)=NNC(=N)N)cc(C(C)=NNC(=N)N)c2)cc(C(C)=NNC(=N)N)c1`, for which the Ki in assay [11] is 158 nM (active); on Aurora kinase A, 5.01 µM (active); at LIM domain kinase 1, 1.26 µM (active); in [12], 2 µM (active); in assay [13], > 5.01 µM (inactive); in assay [14], 631 nM (active). Moreover, the Ki is > 7.94 µM (inactive) in assay [15]; > 3.16 µM (inactive) at Ephrin type-A receptor 2; 398 nM (active) in assay [16]; > 6.31 µM (inactive) in assay [17]; 631 nM (active) in assay [18]; > 3.98 µM (inactive) in [19]. Moreover, the Ki is > 7.94 µM (inactive) in assay [20]; > 6.31 µM (inactive) in [21]; > 5.01 µM (inactive) in assay [22]; > 7.94 µM (inactive) in assay [23]; 316 nM (active) in assay [24]; > 6.31 µM (inactive) in assay [25]. Besides, in [26], the Ki was > 3.16 µM (inactive).
With `CCC(C)NC(=O)c1c(N)n(CCCOC)c2nc3ccccc3nc12` (stereo not given), the IC50 in assay [27] is 2.06 µM (active).
